Bridge positions count the residues as written; N and C are the ends. Peptide text beside a SMILES is read from it.
Experiments:
[1] = system: Melanin-concentrating hormone receptor (Synbranchus marmoratus); test: Melanin concentrating hormone(MCH) activity, causes melanosome aggregation within integumental fish melanocytes and lightening of the skin; d = Inactive at 10e-6 M
[2] = system: melanocortin receptor (frog); test: Melanosome dispersion (skin darkening) within melanocytes (Alpha-MSH-like activity), measured on tetrapod skin; e =Inactive at 10e-5
[3] = system: melanocortin receptor (frog); test: Melanosome dispersion (skin darkening) within melanocytes (Alpha-MSH-like activity), measured on tetrapod skin; Inactive at 10e-5
[4] = system: Melanin-concentrating hormone receptor (Synbranchus marmoratus); test: Melanin concentrating hormone(MCH) activity, causes melanosome aggregation within integumental fish melanocytes and lightening of the skin; d = Inactive at 10e-6 M; remark: listed apart in the source
[5] = system: melanocortin receptor (frog); test: Melanosome dispersion (skin darkening) within melanocytes (Alpha-MSH-like activity), measured on tetrapod skin; e = Inactive at 10e-5

SMILES | EC50 [1] | other results
CSCC[C@H](NC(=O)[C@H](C)N)C(=O)N[C@H](C(=O)NCC(=O)N[C@@H](CCCN=C(N)N)C(=O)N[C@H]1CSSC[C@@H](C(=O)N[C@@H](Cc2c[nH]c3ccccc23)C(=O)N[C@@H](CCC(=O)O)C(=O)N[C@H](C(=O)O)C(C)C)NC(=O)[C@@H]2CCCN2C(=O)[C@H](CCCN=C(N)N)NC(=O)[C@H](Cc2ccc(O)cc2)NC1=O)C(C)C (H-AMVGRCYRPCWEV-OH; disulfide 6-10) | Not Active | –
CSCC[C@H](NC(=O)[C@H](C)NC(=O)[C@H](CCCN=C(N)N)NC(=O)[C@H](CCSC)NC(=O)[C@@H](NC(=O)[C@@H](N)CC(=O)O)[C@@H](C)O)C(=O)N[C@H](C(=O)N[C@H]1CSSC[C@@H](C(=O)N[C@@H](Cc2c[nH]c3ccccc23)C(=O)N[C@@H](CCC(=O)O)C(=O)N[C@H](C(=O)O)C(C)C)NC(=O)[C@@H]2CCCN2C(=O)[C@H](CCCN=C(N)N)NC(=O)[C@H](Cc2ccc(O)cc2)NC(=O)[C@H](C(C)C)NC(=O)[C@H](CCCN=C(N)N)NC1=O)C(C)C (H-DTMRAMVCRVYRPCWEV-OH; disulfide 8-14) | Not Active | –
CC(C)[C@H](NC(=O)[C@H](CCC(=O)O)NC(=O)[C@H](Cc1c[nH]c2ccccc12)NC(=O)[C@@H]1CSSC[C@H](N)C(=O)N[C@@H](CCCN=C(N)N)C(=O)N[C@@H](C(C)C)C(=O)N[C@@H](Cc2ccc(O)cc2)C(=O)N[C@@H](CCCN=C(N)N)C(=O)N2CCC[C@H]2C(=O)N1)C(=O)O (H-CRVYRPCWEV-OH; disulfide 1-7) | – | EC50 [3]: Not Active
CC(C)[C@H](NC(=O)[C@H](CCC(=O)O)NC(=O)[C@H](Cc1c[nH]c2ccccc12)NC(=O)[C@@H]1CSSC[C@H](N)C(=O)N[C@@H](Cc2ccc(O)cc2)C(=O)N[C@@H](CCCN=C(N)N)C(=O)N2CCC[C@H]2C(=O)N1)C(=O)O (H-CYRPCWEV-OH; disulfide 1-5) | – | EC50 [3]: Not Active
CSCC[C@H](NC(=O)[C@H](C)NC(=O)[C@H](CCCN=C(N)N)NC(=O)[C@H](CCSC)NC(=O)[C@@H](NC(=O)[C@@H](N)CC(=O)O)[C@@H](C)O)C(=O)N[C@H](C(=O)NCC(=O)N[C@@H](CCCN=C(N)N)C(=O)N[C@H]1CSSC[C@@H](C(=O)N[C@@H](Cc2c[nH]c3ccccc23)C(=O)N[C@@H](CCC(=O)O)C(=O)N[C@H](C(=O)O)C(C)C)NC(=O)[C@@H]2CCCN2C(=O)[C@H](CCCN=C(N)N)NC(=O)[C@H](Cc2ccc(O)cc2)NC1=O)C(C)C (H-DTMRAMVGRCYRPCWEV-OH; disulfide 10-14) | – | EC50 [4]: Not Active
CSCC[C@H](NC(=O)[C@H](C)N)C(=O)N[C@H](C(=O)N[C@H]1CSSC[C@@H](C(=O)N[C@@H](Cc2c[nH]c3ccccc23)C(=O)N[C@@H](CCC(=O)O)C(=O)N[C@H](C(=O)O)C(C)C)NC(=O)[C@@H]2CCCN2C(=O)[C@H](CCCN=C(N)N)NC(=O)[C@H](Cc2ccc(O)cc2)NC(=O)[C@H](C(C)C)NC(=O)[C@H](CCCN=C(N)N)NC1=O)C(C)C (H-AMVCRVYRPCWEV-OH; disulfide 4-10) | – | EC50 [5]: Not Active
CSCC[C@H](NC(=O)[C@H](C)NC(=O)[C@H](CCCN=C(N)N)NC(=O)[C@H](CCSC)NC(=O)[C@@H](NC(=O)[C@@H](N)CC(=O)O)[C@@H](C)O)C(=O)N[C@H]1CSSC[C@@H](C(=O)N[C@@H](Cc2c[nH]c3ccccc23)C(=O)N[C@@H](CCC(=O)O)C(=O)N[C@H](C(=O)O)C(C)C)NC(=O)[C@@H]2CCCN2C(=O)[C@H](CCCN=C(N)N)NC(=O)[C@H](Cc2ccc(O)cc2)NC(=O)[C@H](C(C)C)NC(=O)[C@H](CCCN=C(N)N)NC(=O)CNC1=O (H-DTMRAMCGRVYRPCWEV-OH; disulfide 7-14) | Not Active | –

Second part, led by results:

EC50 [1] | SMILES | other results
Not Active | CSCC[C@H](NC(=O)[C@H](C)N)C(=O)N[C@H]1CSSC[C@@H](C(=O)N[C@@H](Cc2c[nH]c3ccccc23)C(=O)N[C@@H](CCC(=O)O)C(=O)N[C@H](C(=O)O)C(C)C)NC(=O)[C@@H]2CCCN2C(=O)[C@H](CCCN=C(N)N)NC(=O)[C@H](Cc2ccc(O)cc2)NC(=O)[C@H](C(C)C)NC(=O)[C@H](CCCN=C(N)N)NC(=O)CNC1=O (H-AMCGRVYRPCWEV-OH; disulfide 3-10) | EC50 [2]: Not Active
Not Active | CC(C)[C@H](NC(=O)[C@H](CCC(=O)O)NC(=O)[C@H](Cc1c[nH]c2ccccc12)NC(=O)[C@@H]1CSSC[C@H](N)C(=O)NCC(=O)N[C@@H](CCCN=C(N)N)C(=O)N[C@@H](C(C)C)C(=O)N[C@@H](Cc2ccc(O)cc2)C(=O)N[C@@H](CCCN=C(N)N)C(=O)N2CCC[C@H]2C(=O)N1)C(=O)O (H-CGRVYRPCWEV-OH; disulfide 1-8) | –

Reference: ChEMBL document CHEMBL1124113, “Melanin concentrating hormone analogues: contraction of the cyclic structure. 1. Agonist activity” (J Med Chem, 1988)
